Test results taken from EPA's ToxRefDB 2.

Tests used:
rat [1] = details: Subchronic oral toxicity in rodents, fischer, Feed, dose end: 13 week, group: systemic, systemic / in life observation / body weight / body weight gain + systemic / in life observation / food consumption / food consumption + …
rat [2] = details: Prenatal developmental toxicity study, sprague dawley, Oral, Gavage/Intubation, dose end: 15 GD
rat [3] = details: Prenatal developmental toxicity study, sprague dawley, Oral, Gavage/Intubation, dose end: 15 GD; remark: listed apart in the source
rat [4] = details: Subchronic oral toxicity in rodents, fischer, Feed, dose end: 13 week, group: systemic, systemic / clinical chemistry / alanine aminotransferase (alt/sgpt) / alanine aminotransferase (alt/sgpt) + systemic / clinical chemistry / …
dog [5] = details: Subchronic oral toxicity in nonrodent, beagle, Feed, dose end: 3 month, group: systemic
rat [6] = details: Multigenerational reproductive toxicity study, sprague dawley, Oral, Feed, dose end: 2 generation
dog [7] = details: Chronic toxicity, beagle, Oral, Feed, dose end: 52 week, group: systemic
mouse [8] = details: Carcinogenicity; cd1; Oral; Feed; dose end: 78 week; group: systemic; systemic / organ weight / liver / nos + systemic / pathology microscopic / liver / hypertrophy + systemic / pathology microscopic / liver / …
rat [9] = details: Subchronic oral toxicity in rodents, Feed, dose end: 13 week, group: systemic
mouse [10] = details: Subchronic oral toxicity in rodents, cd1, Feed, dose end: 3 month, group: systemic
rat [11] = details: Prenatal developmental toxicity study, other, Oral, Gavage/Intubation, dose end: 15 GD
rat [12] = details: Combined chronic toxicity/carcinogenicity, sprague dawley, Oral, Feed, dose end: 2 year, group: systemic
[13] = group: developmental, developmental / developmental malformation / bone / absent + developmental / developmental malformation / bone / bent + developmental / …
[14] = group: maternal, systemic / in life observation / body weight / body weight gain
[15] = group: developmental, developmental / developmental malformation / bone / exencephaly + developmental / developmental malformation / bone / thread-like + …
[16] = group: maternal, systemic / in life observation / body weight / body weight gain + systemic / in life observation / food consumption / food consumption
[17] = systemic / pathology microscopic / liver / hypertrophy
[18] = systemic / pathology microscopic / liver / hypertrophy + systemic / clinical chemistry / alkaline phosphatase (alp/alk) / alkaline …
[19] = group: offspring, developmental / offspring survival late / viability index / viability index + systemic / in life observation / body weight / offspring (pup…
[20] = group: parental, systemic / in life observation / body weight / body weight + systemic / in life observation / food consumption / food consumption + systemic…
[21] = group: reproductive, reproductive / reproductive performance / dystocia / dystocia + reproductive / reproductive performance / gestational length / gestational …
[22] = systemic / in life observation / body weight / body weight gain
[23] = systemic / in life observation / body weight / body weight gain + systemic / clinical chemistry / alkaline phosphatase (alp/alk) / alkaline …
[24] = systemic / pathology microscopic / liver / vacuolization
[25] = systemic / pathology microscopic / liver / vacuolization + systemic / clinical chemistry / cholesterol / cholesterol + systemic / clinical …
[26] = systemic / pathology microscopic / liver / hypertrophy + systemic / clinical chemistry / alanine aminotransferase (alt/sgpt) / alanine …
[27] = group: developmental, developmental / developmental malformation / bone / short supernumerary + systemic / in life observation / body weight / fetal weight
[28] = group: maternal, reproductive / reproductive performance / implantations / implantations + reproductive / reproductive performance / resorptions / …
[29] = systemic / hematology / hematocrit (hct) / hematocrit (hct) + systemic / hematology / hemoglobin (hgb) / hemoglobin (hgb) + systemic / …

CC(C)[NH3+].O=C([O-])COc1ccc(Cl)cc1Cl [2,4-D, isopropylamine salt]
LEL (rat [1]): 127 mg/kg/day | LOAEL (rat [1]): 127 mg/kg/day | NEL (rat [1]): 19 mg/kg/day | NOAEL (rat [1]): 19 mg/kg/day | LEL (rat [2]; [13]): 100 mg/kg/day | LOAEL (rat [2]; [13]): 100 mg/kg/day | NEL (rat [2]; [13]): 32.5 mg/kg/day | NOAEL (rat [2]; [13]): 32.5 mg/kg/day | LEL (rat [2]; [14]): 32.5 mg/kg/day | LOAEL (rat [2]; [14]): 32.5 mg/kg/day | NEL (rat [2]; [14]): < 32.5 mg/kg/day | NOAEL (rat [2]; [14]): < 32.5 mg/kg/day | LEL (rat [3]; [15]): 190 mg/kg/day | LOAEL (rat [3]; [15]): 190 mg/kg/day | NEL (rat [3]; [15]): 65 mg/kg/day | NOAEL (rat [3]; [15]): 65 mg/kg/day | LEL (rat [3]; [16]): 190 mg/kg/day | LOAEL (rat [3]; [16]): 190 mg/kg/day | NEL (rat [3]; [16]): 65 mg/kg/day | NOAEL (rat [3]; [16]): 65 mg/kg/day | LEL (rat [4]): 187 mg/kg/day | LOAEL (rat [4]): 187 mg/kg/day | NEL (rat [4]): 28 mg/kg/day | NOAEL (rat [4]): 28 mg/kg/day

N#CC(CCc1ccc(Cl)cc1)(Cn1cncn1)c1ccccc1 (stereo not drawn) [Fenbuconazole]
LOAEL (dog [5]; [17]): 13.3 mg/kg/day | NEL (dog [5]; [18]): 3.3 mg/kg/day | NOAEL (dog [5]; [18]): 3.3 mg/kg/day | LEL (dog [5]; systemic / pathology microscopic / liver / hypertrophy + systemic / organ weight / liver / absolute + systemic / organ weight / liver / …): 13.3 mg/kg/day | LEL (rat [6]; [19]): 40 mg/kg/day | LOAEL (rat [6]; [19]): 40 mg/kg/day | NEL (rat [6]; [19]): 4 mg/kg/day | NOAEL (rat [6]; [19]): 4 mg/kg/day | LOAEL (rat [6]; [20]): 40 mg/kg/day | NEL (rat [6]; [20]): 0.4 mg/kg/day | NOAEL (rat [6]; [20]): 4 mg/kg/day | LEL (rat [6]; group: parental, systemic / organ weight / liver / absolute + systemic / organ weight / liver / relative to body weight): 4 mg/kg/day | LEL (rat [6]; [21]): 40 mg/kg/day | LOAEL (rat [6]; [21]): 40 mg/kg/day | NEL (rat [6]; [21]): 4 mg/kg/day | NOAEL (rat [6]; [21]): 4 mg/kg/day | LEL (dog [7]; [22]): 3.75 mg/kg/day | LOAEL (dog [7]; [22]): 3.75 mg/kg/day | NEL (dog [7]; [23]): 0.38 mg/kg/day | NOAEL (dog [7]; [23]): 0.38 mg/kg/day | LEL (mouse [8]): 26.3 mg/kg/day | LOAEL (mouse [8]): 26.3 mg/kg/day | NEL (mouse [8]): 1.28 mg/kg/day | NOAEL (mouse [8]): 1.28 mg/kg/day | LEL (rat [9]; [24]): 5.1 mg/kg/day | LOAEL (rat [9]; [24]): 5.1 mg/kg/day | NEL (rat [9]; [25]): 1.3 mg/kg/day | NOAEL (rat [9]; [25]): 1.3 mg/kg/day | LEL (mouse [10]; [17]): 11.1 mg/kg/day | LOAEL (mouse [10]; [17]): 11.1 mg/kg/day | NEL (mouse [10]; [26]): 3.8 mg/kg/day | NOAEL (mouse [10]; [26]): 3.8 mg/kg/day | LEL (rat [11]; [27]): 150 mg/kg/day | LOAEL (rat [11]; [27]): > 150 mg/kg/day | NEL (rat [11]; [27]): 75 mg/kg/day | NOAEL (rat [11]; [27]): ≥ 150 mg/kg/day | LEL (rat [11]; [28]): 75 mg/kg/day | LOAEL (rat [11]; [28]): 75 mg/kg/day | NEL (rat [11]; [28]): 30 mg/kg/day | NOAEL (rat [11]; [28]): 30 mg/kg/day | LEL (rat [12]; systemic / hematology / hematocrit (hct) / hematocrit (hct) + systemic / hematology / hemoglobin (hgb) / hemoglobin (hgb)): 3.03 mg/kg/day | NEL (rat [12]; [29]): 0.31 mg/kg/day | NOAEL (rat [12]; [29]): 3.03 mg/kg/day | LOAEL (rat [12]; systemic / pathology microscopic / thyroid gland / adenoma/carcinoma combined + systemic / organ weight / liver / absolute + systemic / …): 30.6 mg/kg/day
